Positions of bridges follow the written chain, without caps; N, C: chain ends. Residues, ends and D or L forms follow the SMILES beside them.

In patent publication US9340590B2 (priority 2011, dated 2016) one finds IC50 data, which are given here for eight molecules.

Holding throughout (assay): cell-based
For one experiment, the target named is hNav1.7 (Homo sapiens, UniProt Q15858). The class given is cell-based. As to conditions: IonWorks Quattro, use-dependent block, hNav1.7; read-out: IWQ Use Nav1.7. (In general: The patch-clamp technique gives a direct electrical read-out from membranes.)
Sequence of hNav1.7 (Q15858 whole entry, looked up): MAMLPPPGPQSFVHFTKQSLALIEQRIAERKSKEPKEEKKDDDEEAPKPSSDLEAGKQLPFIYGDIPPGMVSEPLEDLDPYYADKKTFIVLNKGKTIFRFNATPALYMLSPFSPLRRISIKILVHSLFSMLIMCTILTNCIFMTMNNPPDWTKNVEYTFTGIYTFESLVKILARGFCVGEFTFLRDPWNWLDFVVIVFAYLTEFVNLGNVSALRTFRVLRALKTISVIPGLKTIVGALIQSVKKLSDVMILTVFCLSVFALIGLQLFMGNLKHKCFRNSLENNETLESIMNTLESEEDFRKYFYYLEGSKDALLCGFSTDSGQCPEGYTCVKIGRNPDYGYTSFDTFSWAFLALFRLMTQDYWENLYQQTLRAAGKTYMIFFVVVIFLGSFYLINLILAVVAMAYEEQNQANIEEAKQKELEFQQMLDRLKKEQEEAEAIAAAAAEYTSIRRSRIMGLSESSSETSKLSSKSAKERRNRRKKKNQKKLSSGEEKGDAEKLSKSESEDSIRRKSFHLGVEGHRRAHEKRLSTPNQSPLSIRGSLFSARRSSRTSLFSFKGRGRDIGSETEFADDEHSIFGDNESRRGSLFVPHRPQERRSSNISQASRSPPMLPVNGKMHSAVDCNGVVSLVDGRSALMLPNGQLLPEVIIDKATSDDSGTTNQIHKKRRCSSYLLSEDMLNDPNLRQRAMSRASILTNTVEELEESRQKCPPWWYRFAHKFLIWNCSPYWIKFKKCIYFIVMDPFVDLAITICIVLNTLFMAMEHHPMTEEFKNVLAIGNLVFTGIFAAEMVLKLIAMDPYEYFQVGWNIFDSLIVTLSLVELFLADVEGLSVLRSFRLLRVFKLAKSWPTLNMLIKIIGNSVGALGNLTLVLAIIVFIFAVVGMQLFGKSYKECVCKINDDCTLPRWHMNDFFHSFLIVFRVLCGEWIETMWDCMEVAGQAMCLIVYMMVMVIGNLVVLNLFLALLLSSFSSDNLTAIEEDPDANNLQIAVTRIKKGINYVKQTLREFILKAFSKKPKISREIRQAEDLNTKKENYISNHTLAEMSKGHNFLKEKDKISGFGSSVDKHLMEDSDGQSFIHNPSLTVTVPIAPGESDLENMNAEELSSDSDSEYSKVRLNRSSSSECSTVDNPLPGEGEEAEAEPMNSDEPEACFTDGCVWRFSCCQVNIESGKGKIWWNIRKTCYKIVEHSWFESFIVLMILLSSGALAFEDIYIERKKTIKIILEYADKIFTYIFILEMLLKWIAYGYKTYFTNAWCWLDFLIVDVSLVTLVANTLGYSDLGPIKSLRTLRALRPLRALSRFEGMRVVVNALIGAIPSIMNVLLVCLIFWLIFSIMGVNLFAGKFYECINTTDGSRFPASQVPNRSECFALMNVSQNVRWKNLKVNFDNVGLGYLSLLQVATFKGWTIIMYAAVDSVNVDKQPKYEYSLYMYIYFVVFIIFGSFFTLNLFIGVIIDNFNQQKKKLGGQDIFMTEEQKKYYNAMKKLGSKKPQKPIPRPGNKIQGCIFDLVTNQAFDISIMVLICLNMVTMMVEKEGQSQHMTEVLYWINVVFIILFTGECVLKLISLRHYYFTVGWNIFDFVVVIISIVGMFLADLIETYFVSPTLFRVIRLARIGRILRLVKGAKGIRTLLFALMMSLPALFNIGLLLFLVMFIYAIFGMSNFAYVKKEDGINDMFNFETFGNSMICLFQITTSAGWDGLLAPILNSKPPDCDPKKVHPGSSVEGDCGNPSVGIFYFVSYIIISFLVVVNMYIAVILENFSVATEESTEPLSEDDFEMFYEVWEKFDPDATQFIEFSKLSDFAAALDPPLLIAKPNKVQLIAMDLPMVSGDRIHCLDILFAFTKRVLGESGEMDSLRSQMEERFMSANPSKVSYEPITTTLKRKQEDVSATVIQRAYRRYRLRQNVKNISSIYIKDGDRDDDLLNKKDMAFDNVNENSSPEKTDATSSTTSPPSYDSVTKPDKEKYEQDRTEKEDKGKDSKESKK
The next experiment addresses hNav1.5 (Homo sapiens, UniProt Q14524). To be noted: IonWorks Quattro, use-dependent block, hNav1.5; read-out: IWQ Use Nav1.5.
The next experiment addresses hNav1.3 (Homo sapiens, UniProt Q9NY46). To be noted: IonWorks Quattro, use-dependent block, hNav1.3; read-out: IWQ Use Nav1.3.

Sequence of hNav1.5 (Q14524 whole entry, looked up): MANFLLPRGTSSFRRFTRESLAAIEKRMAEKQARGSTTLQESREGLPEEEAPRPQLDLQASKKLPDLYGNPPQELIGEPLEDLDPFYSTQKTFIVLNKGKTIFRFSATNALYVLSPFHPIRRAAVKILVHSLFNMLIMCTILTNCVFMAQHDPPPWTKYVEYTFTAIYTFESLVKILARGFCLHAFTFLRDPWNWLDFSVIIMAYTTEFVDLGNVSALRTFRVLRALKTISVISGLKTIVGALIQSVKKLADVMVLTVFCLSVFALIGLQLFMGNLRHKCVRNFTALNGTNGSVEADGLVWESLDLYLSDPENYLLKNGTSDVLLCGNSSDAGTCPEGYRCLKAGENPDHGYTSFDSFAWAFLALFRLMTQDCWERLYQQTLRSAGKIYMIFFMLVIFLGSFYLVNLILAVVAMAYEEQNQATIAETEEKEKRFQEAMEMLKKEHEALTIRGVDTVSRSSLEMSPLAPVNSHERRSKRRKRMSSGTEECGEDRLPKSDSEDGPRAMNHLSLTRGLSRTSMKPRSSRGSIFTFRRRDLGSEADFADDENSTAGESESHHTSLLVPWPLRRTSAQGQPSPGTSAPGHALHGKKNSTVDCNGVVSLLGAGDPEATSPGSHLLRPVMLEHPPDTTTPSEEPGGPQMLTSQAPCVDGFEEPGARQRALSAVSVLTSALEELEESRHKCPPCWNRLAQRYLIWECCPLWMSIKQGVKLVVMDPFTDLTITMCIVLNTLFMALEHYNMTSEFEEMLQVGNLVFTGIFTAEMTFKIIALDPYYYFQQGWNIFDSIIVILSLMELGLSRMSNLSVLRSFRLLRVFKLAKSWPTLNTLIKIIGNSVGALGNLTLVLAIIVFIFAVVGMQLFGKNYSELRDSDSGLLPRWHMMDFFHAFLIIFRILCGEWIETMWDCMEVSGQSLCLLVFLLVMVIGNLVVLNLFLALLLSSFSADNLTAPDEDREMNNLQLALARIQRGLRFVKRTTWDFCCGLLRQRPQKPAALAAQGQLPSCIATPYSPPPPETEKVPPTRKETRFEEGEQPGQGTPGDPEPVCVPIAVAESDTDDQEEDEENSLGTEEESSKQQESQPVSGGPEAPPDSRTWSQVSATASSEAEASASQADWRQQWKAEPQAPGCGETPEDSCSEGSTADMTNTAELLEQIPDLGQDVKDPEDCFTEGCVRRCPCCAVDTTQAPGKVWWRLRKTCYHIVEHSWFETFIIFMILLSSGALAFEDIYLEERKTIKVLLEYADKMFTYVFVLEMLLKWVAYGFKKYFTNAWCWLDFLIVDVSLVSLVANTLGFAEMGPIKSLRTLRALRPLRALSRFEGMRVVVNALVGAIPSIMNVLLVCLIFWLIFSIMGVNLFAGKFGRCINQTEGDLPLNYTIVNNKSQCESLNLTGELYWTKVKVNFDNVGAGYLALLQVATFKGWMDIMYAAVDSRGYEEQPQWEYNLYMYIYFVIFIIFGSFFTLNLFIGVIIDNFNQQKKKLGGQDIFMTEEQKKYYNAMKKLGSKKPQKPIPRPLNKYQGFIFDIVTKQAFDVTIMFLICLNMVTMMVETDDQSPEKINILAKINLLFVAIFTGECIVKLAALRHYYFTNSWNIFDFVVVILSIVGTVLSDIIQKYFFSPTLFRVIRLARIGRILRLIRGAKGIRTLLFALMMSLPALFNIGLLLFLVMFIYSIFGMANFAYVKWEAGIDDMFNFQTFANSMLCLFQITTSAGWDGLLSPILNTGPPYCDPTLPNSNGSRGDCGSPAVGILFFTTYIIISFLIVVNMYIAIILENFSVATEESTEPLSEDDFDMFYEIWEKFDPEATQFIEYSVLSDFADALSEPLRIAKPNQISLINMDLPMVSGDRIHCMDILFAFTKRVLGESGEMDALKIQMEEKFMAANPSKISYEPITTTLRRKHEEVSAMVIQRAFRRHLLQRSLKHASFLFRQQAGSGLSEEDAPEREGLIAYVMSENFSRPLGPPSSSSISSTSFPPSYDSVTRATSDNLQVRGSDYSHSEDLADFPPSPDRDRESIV

As to `CC[C@H](C)[C@@H]1NC(=O)[C@@H]2CSSC[C@@H]3NC(=O)[C@H](C(C)C)NC(=O)[C@H](CC(C)C)NC(=O)[C@H](CC(N)=O)NC(=O)[C@@H]4CCCN4C(=O)[C@H](CCCNC(=N)N)NC(=O)[C@H](CSSC[C@H](NC(=O)[C@@H](N)CC(=O)O)C(=O)N[C@@H](CC(C)C)C(=O)NCC(=O)N[C@@H](C)C(=O)N[C@@H](Cc4ccccc4)C(=O)N[C@@H](CCCNC(=N)N)C(=O)N[C@@H](CCCCN)C(=O)N2)NC(=O)[C@H](CSSC[C@@H](C(=O)N[C@@H](CCCCN)C(=O)N[C@@H](Cc2ccc(O)cc2)C(=O)N[C@H](C(=O)N[C@@H](Cc2ccccc2)C(=O)O)C(C)C)NC(=O)[C@H](Cc2c[nH]c4ccccc24)NC(=O)[C@H](CCCNC(=N)N)NC(=O)[C@H](Cc2c[nH]cn2)NC(=O)[C@H]([C@@H](C)O)NC(=O)[C@H](CCCNC(=N)N)NC(=O)[C@H](CO)NC3=O)NC(=O)[C@H](CCCCN)NC(=O)[C@H](CC(=O)O)NC(=O)[C@H](Cc2c[nH]c3ccccc23)NC(=O)[C@H](CC(=O)O)NC(=O)[C@@H]2CCCN2C1=O` [compound 852], the IC50 on hNav1.7, on hNav1.5 and on hNav1.3 was greater than 5 µM in each case.
For `CC[C@H](C)[C@@H]1NC(=O)[C@@H]2CSSC[C@@H]3NC(=O)[C@H](C(C)C)NC(=O)[C@H](CC(C)C)NC(=O)[C@H](CC(N)=O)NC(=O)[C@@H]4CCCN4C(=O)[C@H](CCCNC(=N)N)NC(=O)[C@H](CSSC[C@H](NC(=O)[C@@H](N)CC(=O)O)C(=O)N[C@@H](CC(C)C)C(=O)NCC(=O)N[C@@H](C)C(=O)N[C@@H](CC(C)C)C(=O)N[C@@H](CCCNC(=N)N)C(=O)N[C@@H](CCCCN)C(=O)N2)NC(=O)[C@H](CSSC[C@@H](C(=O)N[C@@H](CCCCN)C(=O)N[C@@H](Cc2ccc(O)cc2)C(=O)N[C@H](C(=O)N[C@@H](Cc2ccccc2)C(=O)O)C(C)C)NC(=O)[C@H](Cc2c[nH]c4ccccc24)NC(=O)[C@H](CCCNC(=N)N)NC(=O)[C@H](Cc2c[nH]cn2)NC(=O)[C@H]([C@@H](C)O)NC(=O)[C@H](CCCNC(=N)N)NC(=O)[C@H](CO)NC3=O)NC(=O)[C@H](CCCCN)NC(=O)[C@H](CC(=O)O)NC(=O)[C@H](CC(N)=O)NC(=O)[C@H](CC(=O)O)NC(=O)[C@@H]2CCCN2C1=O` [compound 853] (H-DCLGALRKCIPDNDKCCRPNLVCSRTHRWCKYVF-OH; disulfide 2-17, 9-23, 16-30), the IC50 at hNav1.7, at hNav1.5 and at hNav1.3 was greater than 5 µM each time.
As for `CC[C@H](C)[C@@H]1NC(=O)[C@@H]2CSSC[C@@H]3NC(=O)[C@H](C(C)C)NC(=O)[C@H](CC(C)C)NC(=O)[C@H](CC(N)=O)NC(=O)[C@@H]4CCCN4C(=O)[C@H](CCCNC(=N)N)NC(=O)[C@H](CSSC[C@H](NC(=O)[C@@H](N)CC(=O)O)C(=O)N[C@@H](CC(C)C)C(=O)NCC(=O)N[C@@H](C)C(=O)N[C@@H](CC(C)C)C(=O)N[C@@H](CCCNC(=N)N)C(=O)N[C@@H](CCCCN)C(=O)N2)NC(=O)[C@H](CSSC[C@@H](C(=O)N[C@@H](CCCCN)C(=O)N[C@@H](Cc2ccc(O)cc2)C(=O)N[C@H](C(=O)N[C@@H](Cc2ccccc2)C(=O)O)C(C)C)NC(=O)[C@H](Cc2c[nH]c4ccccc24)NC(=O)[C@H](CC(=O)O)NC(=O)[C@H](Cc2c[nH]cn2)NC(=O)[C@H]([C@@H](C)O)NC(=O)[C@H](CCCNC(=N)N)NC(=O)[C@H](CO)NC3=O)NC(=O)[C@H](CCCCN)NC(=O)[C@H](CC(=O)O)NC(=O)[C@H](CC(N)=O)NC(=O)[C@H](CC(=O)O)NC(=O)[C@@H]2CCCN2C1=O` [compound 854] (H-DCLGALRKCIPDNDKCCRPNLVCSRTHDWCKYVF-OH; disulfide 2-17, 9-23, 16-30), the IC50 at hNav1.7, on hNav1.5 and on hNav1.3 was greater than 5 µM in each case.
As for `CC[C@H](C)[C@@H]1NC(=O)[C@@H]2CSSC[C@@H]3NC(=O)[C@H](C(C)C)NC(=O)[C@H](CC(C)C)NC(=O)[C@H](CC(N)=O)NC(=O)[C@@H]4CCCN4C(=O)[C@H](CCCNC(=N)N)NC(=O)[C@H](CSSC[C@H](NC(=O)[C@@H](N)CC(=O)O)C(=O)N[C@@H](CC(C)C)C(=O)NCC(=O)N[C@@H](C)C(=O)N[C@@H](CC(C)C)C(=O)N[C@@H](CCCNC(=N)N)C(=O)N[C@@H](CCCCN)C(=O)N2)NC(=O)[C@H](CSSC[C@@H](C(=O)N[C@@H](CCCCN)C(=O)N[C@@H](Cc2ccc(O)cc2)C(=O)N[C@H](C(=O)N[C@@H](Cc2ccccc2)C(=O)O)C(C)C)NC(=O)[C@H](Cc2c[nH]c4ccccc24)NC(=O)[C@H](CCC(=O)O)NC(=O)[C@H](Cc2c[nH]cn2)NC(=O)[C@H]([C@@H](C)O)NC(=O)[C@H](CCCNC(=N)N)NC(=O)[C@H](CO)NC3=O)NC(=O)[C@H](CCCCN)NC(=O)[C@H](CC(=O)O)NC(=O)[C@H](CC(N)=O)NC(=O)[C@H](CC(=O)O)NC(=O)[C@@H]2CCCN2C1=O` [compound 855], the IC50 at hNav1.7, on hNav1.5 and on hNav1.3 was greater than 5 µM throughout.
Take `CC[C@H](C)[C@@H]1NC(=O)[C@@H]2CSSC[C@@H]3NC(=O)[C@H](C(C)C)NC(=O)[C@H](CC(C)C)NC(=O)[C@H](CC(N)=O)NC(=O)[C@@H]4CCCN4C(=O)[C@H](CCCNC(=N)N)NC(=O)[C@H](CSSC[C@H](NC(=O)[C@@H](N)CC(=O)O)C(=O)N[C@@H](CC(C)C)C(=O)NCC(=O)N[C@@H](C)C(=O)N[C@@H](CC(C)C)C(=O)N[C@@H](CCCNC(=N)N)C(=O)N[C@@H](CCCCN)C(=O)N2)NC(=O)[C@H](CSSC[C@@H](C(=O)N[C@@H](CCCCN)C(=O)N[C@@H](Cc2ccc(O)cc2)C(=O)N[C@H](C(=O)N[C@@H](Cc2ccccc2)C(=O)O)C(C)C)NC(=O)[C@H](Cc2c[nH]c4ccccc24)NC(=O)[C@H](CC(C)C)NC(=O)[C@H](Cc2c[nH]cn2)NC(=O)[C@H]([C@@H](C)O)NC(=O)[C@H](CCCNC(=N)N)NC(=O)[C@H](CO)NC3=O)NC(=O)[C@H](CCCCN)NC(=O)[C@H](CC(=O)O)NC(=O)[C@H](CC(N)=O)NC(=O)[C@H](CC(=O)O)NC(=O)[C@@H]2CCCN2C1=O` [compound 856] (H-DCLGALRKCIPDNDKCCRPNLVCSRTHLWCKYVF-OH; disulfide 2-17, 9-23, 16-30): the IC50 is 4.1 µM at hNav1.7, greater than 5 µM on hNav1.5 and 4.1 µM on hNav1.3.
Regarding `CC[C@H](C)[C@@H]1NC(=O)[C@@H]2CSSC[C@@H]3NC(=O)[C@H](C(C)C)NC(=O)[C@H](CC(C)C)NC(=O)[C@H](CC(N)=O)NC(=O)[C@@H]4CCCN4C(=O)[C@H](CCCNC(=N)N)NC(=O)[C@H](CSSC[C@H](NC(=O)[C@@H](N)CC(=O)O)C(=O)N[C@@H](CC(C)C)C(=O)NCC(=O)N[C@@H](C)C(=O)N[C@@H](CC(C)C)C(=O)N[C@@H](CCCNC(=N)N)C(=O)N[C@@H](CCCCN)C(=O)N2)NC(=O)[C@H](CSSC[C@@H](C(=O)N[C@@H](CCCCN)C(=O)N[C@@H](Cc2ccc(O)cc2)C(=O)N[C@H](C(=O)N[C@@H](Cc2ccccc2)C(=O)O)C(C)C)NC(=O)[C@H](Cc2c[nH]c4ccccc24)NC(=O)[C@H](CCSC)NC(=O)[C@H](Cc2c[nH]cn2)NC(=O)[C@H]([C@@H](C)O)NC(=O)[C@H](CCCNC(=N)N)NC(=O)[C@H](CO)NC3=O)NC(=O)[C@H](CCCCN)NC(=O)[C@H](CC(=O)O)NC(=O)[C@H](CC(N)=O)NC(=O)[C@H](CC(=O)O)NC(=O)[C@@H]2CCCN2C1=O` [compound 857] (H-DCLGALRKCIPDNDKCCRPNLVCSRTHMWCKYVF-OH; disulfide 2-17, 9-23, 16-30), the IC50 at hNav1.7, at hNav1.5 and at hNav1.3 was greater than 5 µM in each case.
Take `CC[C@H](C)[C@@H]1NC(=O)[C@@H]2CSSC[C@@H]3NC(=O)[C@H](C(C)C)NC(=O)[C@H](CC(C)C)NC(=O)[C@H](CC(N)=O)NC(=O)[C@@H]4CCCN4C(=O)[C@H](CCCNC(=N)N)NC(=O)[C@H](CSSC[C@H](NC(=O)[C@@H](N)CC(=O)O)C(=O)N[C@@H](CC(C)C)C(=O)NCC(=O)N[C@@H](C)C(=O)N[C@@H](CC(C)C)C(=O)N[C@@H](CCCNC(=N)N)C(=O)N[C@@H](CCCCN)C(=O)N2)NC(=O)[C@H](CSSC[C@@H](C(=O)N[C@@H](CCCCN)C(=O)N[C@@H](Cc2ccc(O)cc2)C(=O)N[C@H](C(=O)N[C@@H](Cc2ccccc2)C(=O)O)C(C)C)NC(=O)[C@H](Cc2c[nH]c4ccccc24)NC(=O)[C@H](CCC(N)=O)NC(=O)[C@H](Cc2c[nH]cn2)NC(=O)[C@H]([C@@H](C)O)NC(=O)[C@H](CCCNC(=N)N)NC(=O)[C@H](CO)NC3=O)NC(=O)[C@H](CCCCN)NC(=O)[C@H](CC(=O)O)NC(=O)[C@H](CC(N)=O)NC(=O)[C@H](CC(=O)O)NC(=O)[C@@H]2CCCN2C1=O` [compound 858] (H-DCLGALRKCIPDNDKCCRPNLVCSRTHQWCKYVF-OH; disulfide 2-17, 9-23, 16-30): the IC50 at hNav1.7, on hNav1.5 and on hNav1.3 was greater than 5 µM throughout.
With `CC[C@H](C)[C@@H]1NC(=O)[C@@H]2CSSC[C@@H]3NC(=O)[C@H](C(C)C)NC(=O)[C@H](CC(C)C)NC(=O)[C@H](CC(N)=O)NC(=O)[C@@H]4CCCN4C(=O)[C@H](CCCNC(=N)N)NC(=O)[C@H](CSSC[C@H](NC(=O)[C@@H](N)CC(=O)O)C(=O)N[C@@H](CC(C)C)C(=O)NCC(=O)N[C@@H](C)C(=O)N[C@@H](CC(C)C)C(=O)N[C@@H](CCCNC(=N)N)C(=O)N[C@@H](CCCCN)C(=O)N2)NC(=O)[C@H](CSSC[C@@H](C(=O)N[C@@H](CCCCN)C(=O)N[C@@H](Cc2ccc(O)cc2)C(=O)N[C@H](C(=O)N[C@@H](Cc2ccccc2)C(=O)O)C(C)C)NC(=O)[C@H](Cc2c[nH]c4ccccc24)NC(=O)[C@H](CO)NC(=O)[C@H](Cc2c[nH]cn2)NC(=O)[C@H]([C@@H](C)O)NC(=O)[C@H](CCCNC(=N)N)NC(=O)[C@H](CO)NC3=O)NC(=O)[C@H](CCCCN)NC(=O)[C@H](CC(=O)O)NC(=O)[C@H](CC(N)=O)NC(=O)[C@H](CC(=O)O)NC(=O)[C@@H]2CCCN2C1=O` [compound 859] (H-DCLGALRKCIPDNDKCCRPNLVCSRTHSWCKYVF-OH; disulfide 2-17, 9-23, 16-30), the IC50 on hNav1.7, on hNav1.5 and on hNav1.3 was greater than 5 µM in each case.
